Experimental findings from article PMC6078800 (Nature biotechnology, 2018) are described below.

One experiment concerns the target T1, Mp-KYNase (Mucilaginibacter paludis, UniProt H1YAV1).
T1 sequence (H1YAV1 1-429): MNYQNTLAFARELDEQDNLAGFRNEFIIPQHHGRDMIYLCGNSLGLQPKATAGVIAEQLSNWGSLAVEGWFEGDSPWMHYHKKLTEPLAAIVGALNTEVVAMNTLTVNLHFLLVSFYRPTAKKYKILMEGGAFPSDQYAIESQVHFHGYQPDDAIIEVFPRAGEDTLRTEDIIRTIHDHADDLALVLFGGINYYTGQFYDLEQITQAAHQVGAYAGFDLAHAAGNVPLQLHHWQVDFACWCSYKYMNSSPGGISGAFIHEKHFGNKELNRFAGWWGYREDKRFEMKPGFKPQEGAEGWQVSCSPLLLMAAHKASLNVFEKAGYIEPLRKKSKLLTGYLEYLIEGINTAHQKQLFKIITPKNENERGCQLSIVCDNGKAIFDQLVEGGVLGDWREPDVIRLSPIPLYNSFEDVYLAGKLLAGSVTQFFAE
The experiment in a line: absorbance at […] nm, initial rates, Michaelis-Menten fit. It is filed as biochemical. The conditions noted are these: DPBS pH 7.4; enzyme PLP-loaded; not PEGylated.

A further experiment has as its target T2, Pf-KYNase (Pseudomonas fluorescens, UniProt P83788).
T2 sequence (P83788 1-416): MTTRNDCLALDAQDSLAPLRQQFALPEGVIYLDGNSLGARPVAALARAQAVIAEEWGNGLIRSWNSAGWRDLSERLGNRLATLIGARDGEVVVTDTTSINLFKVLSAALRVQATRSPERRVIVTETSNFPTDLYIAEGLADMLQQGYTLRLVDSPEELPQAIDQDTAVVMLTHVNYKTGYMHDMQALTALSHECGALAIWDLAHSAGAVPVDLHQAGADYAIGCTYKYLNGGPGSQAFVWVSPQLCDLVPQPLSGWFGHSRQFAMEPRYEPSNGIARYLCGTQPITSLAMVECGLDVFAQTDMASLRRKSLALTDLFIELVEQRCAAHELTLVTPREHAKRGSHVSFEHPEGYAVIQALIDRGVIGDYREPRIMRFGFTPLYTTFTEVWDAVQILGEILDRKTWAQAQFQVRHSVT
The description is as above. Format: biochemical. To be noted: DPBS pH 7.4; enzyme PLP-loaded; not PEGylated.

With `Nc1ccccc1C(=O)C[C@H](N)C(=O)O` [kynurenine], the KM result at Mp-KYNase is listed as “kinetic parameters for the kynureninase enzymes against both kynurenine (Kyn, Sigma)”; at Pf-KYNase, “kinetic parameters for the kynureninase enzymes against both kynurenine (Kyn, Sigma)”.
